Source: publication PMC12473540, “Cytotoxic Activity of Chemical Constituents of Clerodendrum glabrum and Combretum nelsonii Root Extracts Against Selected Cancer Cell Lines” (Plants, 2025)
pIC50: −log10 of the molar value. Converted amounts (≈) assume the structure as drawn. Read-outs that look alike come from different tables or passages of the source.

Tests used:
in vitro [1] = conditions: African green monkey (Vero) and human (Caco-2), Caco-2
Experimental: (§1) The antiproliferative activity of the crude extracts and compounds isolated from C. glabrum and C. nelsonii were tested against heterogenous human epithelial colorectal adenocarcinoma (Caco-2) and hormone receptor positive breast cancer (MCF-7) cells using the MTT assay. The Vero African green monkey kidney cells were used as the non-cancerous cell line for comparison. Doxorubicin was used as the positive control.
(§2) The cytotoxic activity of extracts and isolated compounds was evaluated using the MTT assay against colorectal adenocarcinoma (Caco-2, ATCC® HTB-37™), breast adenocarcinoma (MCF-7, ATCC® HTB-22™), and non-cancerous monkey kidney cells (Vero, ATCC® CCL-81™). Cell culture and maintenance were carried out following standard protocols. The cells were seeded in 96-well plates and exposed to varying concentrations of extracts (0.025–1 mg/mL) and compounds (0.2–200 µg/mL) for 48 h. Doxorubicin was used as a positive control, and DMSO as a negative control. Cell viability was determined by MTT reduction and absorbance was measured at 570 nm. LC50 values were calculated, and the selectivity index(SI) was obtained by dividing LC50 values of Vero cells by those of the cancer cell lines.

[2] = system: human epithelial colorectal adenocarcinoma (Caco-2) cells; assay: MTT cytotoxicity assay on Caco-2 cells; conditions: for CC50: Homo sapiens, Caco-2, 48 h, read-out: Caco-2 (LC50)
Experimental: as §1, §2

in vitro [3] = assay: in vitro
Experimental: as §1, §2

[4] = system: hormone receptor positive breast cancer (MCF-7) cells; assay: MTT cytotoxicity assay on MCF-7 cells; conditions: for CC50: Homo sapiens, MCF7, 48 h, read-out: MCF-7 (LC50); for Selectivity Index MCF-7: LC50 of Vero cells divided by LC50 of MCF-7
Experimental: as §1
as §2, with “The cells were seeded in 96-well plates and exposed to varying concentrations of extracts (0.025–1 mg/mL) and compounds (0.2–200 µg/mL) for 48 h.” left out

[5] = system: gastric adenocarcinoma AGS cells; conditions: cited from earlier work
[6] = system: prostate cancer cells (LNCaP); set-up: method as in ref 45 (ref 58); conditions: royleanone; ref 45 (ref 58); read-out: Literature report LNCaP IC50; cited from earlier work
[7] = system: breast MDA-MB-231 cancer cell lines; set-up: method as in doi:10.4103/pm.pm_265_20; conditions: royleanone; read-out: Literature report MDA-MB-231 IC50; cited from earlier work
human colon HCT116 = system: human colon HCT116; set-up: method as in doi:10.4103/pm.pm_265_20; conditions: royleanone, result in words; cited from earlier work
[8] = system: colon (COL-2) cancer cells; set-up: method as in doi:10.18063/cp.v1i4.255, PMID 20614808, PMID 25355727, doi:10.1076/phbi.37.2.148.6082; conditions: ferruginol; cited from earlier work
MCF-7 = conditions: cited from earlier work
[9] = system: human liver hepatocellular carcinoma HepG2 cells; set-up: method as in doi:10.18063/cp.v1i4.255, PMID 20614808, PMID 25355727, doi:10.1076/phbi.37.2.148.6082; conditions: ferruginol; read-out: Literature report HepG2 (IC50); cited from earlier work
[10] = system: prostate cancer PC3 cells; set-up: method as in doi:10.18063/cp.v1i4.255, PMID 20614808, PMID 25355727, doi:10.1076/phbi.37.2.148.6082; conditions: ferruginol; read-out: Literature report PC3 (IC50); cited from earlier work
[11] = system: human colon carcinoma SW620 cell lines; conditions: stigmasterol, in Table 2; cited from earlier work
[12] = system: triple negative breast cancer HCC70 cells; set-up: method as in doi:10.4314/ecajps.v11i2.44769; conditions: stigmasterol; cited from earlier work
colon cancer cell Caco-2 = system: colon cancer cell Caco-2; set-up: method as in doi:10.4314/ecajps.v11i2.44769; conditions: stigmasterol; cited from earlier work
tubulin = system: tubulin; set-up: method as in PMID 12059907, PMID 10893310; conditions: combretastatin A-1; read-out: Tubulin inhibition IC50; cited from earlier work
leukemia (P388) = system: leukemia (P388); set-up: method as in ref 50 = [50]; 50. Akim A. Biological Activities of Oryzanol, Stigmasterol and Microminutinin on Human Breast Cancer Cell-Line, MCF-7 Ph.D. Thesis University Putra Malaysia Serdang, Malaysia 2004; conditions: cited from earlier work
colon (KM20L2) = system: colon (KM20L2); set-up: method as in ref 50 = [50]; 50. Akim A. Biological Activities of Oryzanol, Stigmasterol and Microminutinin on Human Breast Cancer Cell-Line, MCF-7 Ph.D. Thesis University Putra Malaysia Serdang, Malaysia 2004; conditions: cited from earlier work
lung-NCS (NCI-H460) = system: lung-NCS (NCI-H460); set-up: method as in ref 50 = [50]; 50. Akim A. Biological Activities of Oryzanol, Stigmasterol and Microminutinin on Human Breast Cancer Cell-Line, MCF-7 Ph.D. Thesis University Putra Malaysia Serdang, Malaysia 2004; conditions: cited from earlier work
pancreas-a (BXPC-3) = system: pancreas-a (BXPC-3); set-up: method as in ref 50 = [50]; 50. Akim A. Biological Activities of Oryzanol, Stigmasterol and Microminutinin on Human Breast Cancer Cell-Line, MCF-7 Ph.D. Thesis University Putra Malaysia Serdang, Malaysia 2004; conditions: cited from earlier work
prostate (DU-145) = system: prostate (DU-145); set-up: method as in ref 50 = [50]; 50. Akim A. Biological Activities of Oryzanol, Stigmasterol and Microminutinin on Human Breast Cancer Cell-Line, MCF-7 Ph.D. Thesis University Putra Malaysia Serdang, Malaysia 2004; conditions: cited from earlier work
[13] = African green monkey, Vero kidney cells (ATCC CCL-81), non-cancerous

`COc1cccc2c1C(=O)c1c(O)c3c(c(O)c1C2=O)C[C@@](O)(C(=O)CO)C[C@@H]3O[C@H]1C[C@H](N)[C@H](O)[C@H](C)O1` [Doxorubicin, reference compound] showed a selectivity ratio at 48 h (in vitro [1]) of 9.08, a CC50 [2] of 0.76 µg/mL (≈ 1.4 µM) and a CC50 at 48 h (in vitro [3]; African green monkey) of 6.9 µg/mL (≈ 12.7 µM). For the same molecule, the CC50 [4] was 3.1 µg/mL (≈ 5.7 µM) and the “Selectivity Index MCF-7” value [4] was 2.20.
In the case of `CC(C)C1=C(O)C(=O)C2=C(CC[C@H]3C(C)(C)CCC[C@]23C)C1=O` [Compound 2, 12-hydroxy-8,12-abietadiene-11,14-dione], the pIC50 ([5]; royleanone, read-out: Literature report AGS IC50) is listed as 4.74, the selectivity ratio at 48 h (in vitro [1]) is listed as < 0.15 and the CC50 [2] is listed as > 200 µg/mL. The pIC50 [6] was 4.90, the CC50 at 48 h (in vitro [3]) was 30.7 µg/mL (≈ 97 µM) and the pIC50 [7] was < 3.60. For the same molecule, the CC50 [4] was > 200 µg/mL, the “Selectivity Index MCF-7” value [4] was <0.150 and the “Literature report colon HCT116” value (human colon HCT116) was “variable”.
For `CC(C)c1cc2c(cc1O)[C@@]1(C)CCCC(C)(C)[C@@H]1CC2` [Compound 1, 12-hydroxy-abieta-8,11,13-triene], the pIC50 ([5]; ferruginol, read-out: Literature report AGS (IC50)) is given as 4.57, the “Selectivity Index Caco-2” value ([2]; Caco-2) is given as 8.23 × 10^−6 and the CC50 [2] is given as 24.3 µg/mL (≈ 84.8 µM). For the same molecule, the “Literature report colon (COL-2) ED50” value [8] was > 20 µg/mL, the CC50 at 48 h (in vitro [3]; African green monkey) was 0.0002 µg/mL (≈ 0.000698 µM) and the pIC50 (MCF-7; ferruginol, read-out: Literature report MCF-7 (IC50)) was 4.92. The CC50 [4] was 48.4 µg/mL (≈ 169 µM), the pIC50 [9] was 4.16 and the pIC50 [10] was 4.26.
In the case of `COc1ccc(CCc2cc(OC)c(OC)c(OC)c2)c(OC2OC(CO)C(O)C(O)C2O)c1O` [Compound 5b, combretastatin B-1-2′-O-β-D-glucopyranoside], the CC50 at 48 h (in vitro [3]; [13]) was 83.8 µg/mL (≈ 169 µM), the CC50 [4] was 44.1 µg/mL (≈ 88.8 µM) and the “Selectivity Index MCF-7” value [4] was 1.90.
For `CC[C@H](C=C[C@@H](C)[C@H]1CC[C@H]2[C@@H]3CC=C4C[C@@H](O)CC[C@]4(C)[C@H]3CC[C@]12C)C(C)C` [Compound 6, stigmasta-5,22-dien-3β-ol], the selectivity ratio at 48 h (in vitro [1]) was < 0.69, the CC50 [2] was > 200 µg/mL and the CC50 at 48 h (in vitro [3]) was 137 µg/mL (≈ 332 µM). For the same molecule, the pIC50 (MCF-7; stigmasterol, read-out: MCF-7 IC50) was < 3.30, the CC50 [4] was > 200 µg/mL and the “Selectivity Index MCF-7” value [4] was <0.690. For the same molecule, the pIC50 [11] was 5.55, the pIC50 [12] was < 3.30 and the pIC50 (colon cancer cell Caco-2) was 3.88.
For `COc1ccc(C=Cc2cc(OC)c(OC)c(OC)c2)c(OC2OC(CO)C(O)C(O)C2O)c1O` [Compound 5a, combretastatin A-1-2′-O-β-D-glucopyranoside], the CC50 at 48 h (in vitro [3]; [13]) was 83.8 µg/mL (≈ 169 µM), the CC50 [4] was 44.1 µg/mL (≈ 89.2 µM) and the “Selectivity Index MCF-7” value [4] was 1.90.
For `COc1ccc(/C=C\c2cc(OC)c(OC)c(OC)c2)c(O)c1O` [Compound 4, 3,4,5-trimethoxy-2′,3′hydroxyl-4′methoxy-stilbene], the pIC50 (tubulin) is listed as 5.96, the “P388 GI50” value (leukemia (P388)) is listed as 0.3 µg/mL and the “KM20L2 GI50” value (colon (KM20L2)) is listed as 0.061 µg/mL. The “NCI-H460 GI50” value (lung-NCS (NCI-H460)) was 0.74 µg/mL, the CC50 at 48 h (in vitro [3]) was 15.3 µg/mL (≈ 46 µM) and the “BXPC-3 GI50” value (pancreas-a (BXPC-3)) was 4.4 µg/mL. The CC50 [4] was 72 µg/mL (≈ 217 µM), the “Selectivity Index MCF-7” value [4] was 0.210 and the “DU-145 GI50” value (prostate (DU-145)) was 0.017 µg/mL.
